target: 11β-hsd-1 enzyme (Homo sapiens, UniProt P28845); experiment: biochemical; details: Table 2; inhibitor 0.1 mM as printed
Protocol: Percentage of inhibition was determined in a 100 mM Triethanolamine buffer, pH 8.0, 200 mM NaCl, 0.02% n-dodecyl β-D-maltoside and 5 mM β-ME. A typical reaction was carried on a Corning® u-bottom 96-well plate and is described as follows: 11β-hsd-1 enzyme (5 nM, final concentration) was pre-incubated in the presence of the inhibitor and NADPH (500 μM, final concentration) for at least 30 minutes
in the assay buffer. When pre-incubation was completed, the reaction was initiated by adding the regenerating system (2 mM Glucose-6-Phosphate, 1U/mL Glucose-6-Phosphate dehydrogenase, and 6 mM MgCl2, all the concentration reported are final in the assay buffer), and 3H-cortisone (200 nM, final concentration). After 60 minutes, 60 μL of the assay mixture was transferred to a second 96-well plate and mixed with an equal volume of dimethylsulfoxide to stop the reaction. A 15 μL aliquot from the reaction mixture was loaded into a C-18 column (Polaris C18-A, 50×4.6 mm, 5 μ, 180 Angstrom from Varian) connected to an automated High-throughput Liquid Chromatography instrument developed by Cohesive Technologies Inc of Franklin, Mass., with a […] model 3 Radio-HPLC detector from IN/US of Tampa, Fla. The substrate and product peaks were separated by using an isocratic mixture of 43:57 methanol to water (v/v) at a flow rate of 1.0 mL/min.
Percent Inhibition was calculated based on the following equation: (1-(3H-Cortisol peak area in the […] of inhibitor)×100).

Chain of 11β-hsd-1 enzyme (P28845 whole entry, species assumed): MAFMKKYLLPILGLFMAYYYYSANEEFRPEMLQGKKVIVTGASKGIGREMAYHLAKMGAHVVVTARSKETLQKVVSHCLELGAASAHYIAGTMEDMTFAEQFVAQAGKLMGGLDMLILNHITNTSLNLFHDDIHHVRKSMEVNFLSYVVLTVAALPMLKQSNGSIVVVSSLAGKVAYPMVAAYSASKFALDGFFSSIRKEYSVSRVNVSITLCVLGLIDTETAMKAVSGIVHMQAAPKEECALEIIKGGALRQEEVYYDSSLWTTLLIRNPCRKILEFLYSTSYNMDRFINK

SMILES	% Inh @ 0.1 mM [%]
CCc1cccc(NS(=O)(=O)N2C[C@@H]3[C@H](C2)C3(C#N)N2CCOCC2)n1 (some centres unmarked) [Example 115, (1R*5S*6S*)-6-cyano-N-(6-ethylpyridin-2-yl)-6-morpholin-4-yl-3-azabicyclo[3.1.0]hexane-3-sulfonamide]	0

same assay, conditions: read-out: % Inh @ 0.1 μM

SMILES	inhibition at 0.1 µM [%]
Cc1cccc(NS(=O)(=O)N2CCN(c3ncccc3C)CC2)n1 [Example 4]	26.6
Cc1cccc(NS(=O)(=O)N2CCN(c3ncccc3C(F)(F)F)CC2)n1 [Example 5]	44.6
Cc1ccnc(N2CCN(S(=O)(=O)Nc3cccc(C)n3)CC2)c1 [Example 6]	56.2
Cc1cccc(NS(=O)(=O)N2CCN(Cc3ccccc3)CC2)n1 [Example 7]	17.7
Cc1cccc(NS(=O)(=O)N2CCOCC2c2ccc(F)cc2)n1 (centres unmarked) [Example 21]	10.6
Cc1cccc(NS(=O)(=O)N2C[C@H]3C[C@@H]2CN3c2ccc(C#N)cn2)n1 [Example 24]	0
O=S(=O)(Nc1ccc2ncccc2n1)N1CCC(c2ccc(C(F)(F)F)cn2)CC1 [Example 36, N-1,5-naphthyridin-2-yl-4-[5-(trifluoromethyl)pyridin-2-yl]piperidine-1-sulfonamide]	89
C[C@@H]1CN(S(=O)(=O)Nc2cccc(CO)n2)CCN1c1ncc(F)cn1 [Example 40, (3R)-4-(5-fluoropyrimidin-2-yl)-N-[6-(hydroxymethyl)pyridin-2-yl]-3-methylpiperazine-1-sulfonamide]	100
Cc1cc(C)nc(NS(=O)(=O)N2CCc3ccc(S(C)(=O)=O)cc3CC2)c1 [Example 41]	55
Cc1cc(N)nc(NS(=O)(=O)N2CCn3c(nc4cc(C(F)(F)F)ccc43)C2)c1 [Example 47]	100
Cc1cc(N)nc(NS(=O)(=O)N2CCn3c(nc4cc(Cl)ccc43)C2)c1 [Example 48]	100
Cc1cc(N)nc(NS(=O)(=O)N2CCn3c(nc4cccc(C)c43)C2)c1 [Example 49]	100
Cc1cc(N)nc(NS(=O)(=O)N2CCn3c(nc4ccccc43)C2)c1 [Example 50]	100
Cc1cc(N)nc(NS(=O)(=O)N2CCn3cc(C(F)(F)F)nc3C2)c1 [Example 51]	38
Cc1cc(N)nc(NS(=O)(=O)N2CCn3c(-c4ccccc4)cnc3C2)c1 [Example 52]	100
Cc1cc(N)cc(NS(=O)(=O)N2CCC(Oc3ccccc3F)CC2)c1 [Example 53]	100
Cc1cc(N)cc(NS(=O)(=O)N2CCC(Oc3cccc(F)c3)CC2)c1 [Example 54]	100
Cc1cc(N)cc(NS(=O)(=O)N2CCC(Oc3ccccc3)CC2)c1 [Example 55]	92
Cc1cc(N)cc(NS(=O)(=O)N2CCC(C(F)(F)F)CC2)c1 [Example 56]	100
C[C@H]1CN(S(=O)(=O)Nc2cccc(CO)n2)CCN1c1ccc(C#N)cn1 [Example 58, (3S)-4-(5-cyanopyridin-2-yl)-N-[6-(hydroxymethyl)pyridin-2-yl]-3-methylpiperazine-1-sulfonamide]	100
CC1CN(c2ccc(C#N)cn2)CCN1S(=O)(=O)Nc1cccc(CO)n1 (centres unmarked) [Example 59, 4-(5-cyanopyridin-2-yl)-N-[6-(hydroxymethyl)pyridin-2-yl]-2-methylpiperazine-1-sulfonamide]	94.2
CCc1cccc(NS(=O)(=O)N2CCC(c3ncccn3)CC2)n1 [Example 60, N-(6-ethylpyridin-2-yl)-4-pyrimidin-2-ylpiperidine-1-sulfonamide]	7
CCc1cccc(NS(=O)(=O)N2CCN(C(C)C)CC2)n1 [Example 61]	0
CCc1cccc(NS(=O)(=O)N2CCN(C3CCCCC3)CC2)n1 [Example 62]	0
CCc1cccc(NS(=O)(=O)N2CCC3(CCc4cc(Cl)ccc4O3)CC2)n1 [Example 63]	40
CCc1cccc(NS(=O)(=O)N2CCC3(CCc4cc(C)ccc4O3)CC2)n1 [Example 64]	5.4
CCc1cccc(NS(=O)(=O)N2CCC3(CC2)CC(=O)c2cc(Cl)ccc2O3)n1 [Example 65]	4.7
CCc1cccc(NS(=O)(=O)N2CCC3(CCc4ccccc4O3)CC2)n1 [Example 66]	42.8
CCc1cccc(NS(=O)(=O)N2CCC(c3c[nH]c4ccccc34)CC2)n1 [Example 67]	62.6
CCc1cccc(NS(=O)(=O)N2C[C@@H]3C[C@H]2CN3c2ccccc2)n1 [Example 69]	5.6

same assay, conditions: read-out: % Inh @ 0.1 mM

SMILES	inhibition [%]
Cc1ccc(C2(C)CN(S(=O)(=O)Nc3cccc(C)n3)CCO2)cc1 (centres unmarked) [Example 70, 2-methyl-2-(4-methylphenyl)-N-(6-methylpyridin-2-yl)morpholine-4-sulfonamide]	85.3
CCc1cccc(NS(=O)(=O)N2CCCC(c3nc(C)no3)C2)n1 (centres unmarked) [Example 72, N-(6-ethylpyridin-2-yl)-3-(2-methyl-124-oxadiazol-5-yl)piperidine-1-sulfonamide]	56.7
CCc1cccc(NS(=O)(=O)N2CCC(c3cccc(C(=O)Nc4ccccn4)c3)CC2)n1 [Example 73, 3-(1-{[(6-ethylpyridin-2-yl)amino]sulfonyl}pipendin-4-yl)-N-pyridin-2-ylbenzamide]	49.6
CCc1cccc(NS(=O)(=O)N2CCC(c3cccc(C(N)=O)c3)CC2)n1 [Example 75, 3-(1-{[(6-ethylpyridin-2-yl)amino]sulfonyl}piperidin-4-yl)benzamide]	45.6
CCc1cccc(NS(=O)(=O)N2CCC(c3ccc(C(=O)NC)cc3)CC2)n1 [Example 76, 4-(1-{[(6-ethylpyridin-2-yl)amino]sulfonyl}piperidin-4-yl)-N-methylbenzamide]	34.4
CCc1cccc(NS(=O)(=O)N2CCC(c3ccc(C(=O)N4CCOCC4)cc3)CC2)n1 [Example 77, N-(6-ethylpyridin-2-yl)-4-[4-(morpholin-4-ylcarbonyl)phenyl]piperi-din-1-sulfonamide]	48.4
CCc1cccc(NS(=O)(=O)N2CCC(c3ccc(C(=O)NC4CC4)cc3)CC2)n1 [Example 78, N-cyclopropyl-4-(1-{[(6-ethylpyridin-2-yl)amino]sulfonyl}piperi-din-4-yl)benzamide]	64.2
CCc1cccc(NS(=O)(=O)N2CCC(c3cccc(C(=O)N(CC)CC)c3)CC2)n1 [Example 79, NN-diethy-3-(1-{[(6-ethylpyridin-2-yl)amino]sulfonyl}piperidin-4-yl)benzamide]	51.1
CCc1cccc(NS(=O)(=O)N2CCC(COCc3ccccc3F)CC2)n1 [Example 92, N-(6-ethylpyridin-2-yl)-4-{[(2-fluorobenzyl)oxy]meth-yl}piperidine-1-sulfonamide]	67.5
CCc1cccc(NS(=O)(=O)N2CCC(COCc3cccc(OC)c3)CC2)n1 [Example 94, N-(6-ethylpyridin-2-yl)-4-{[(3-methoxybenzyl)oxy]-methyl}pipendine-1-sulfonamide]	40.7
CCc1cccc(NS(=O)(=O)N2CCC(n3c(C)nnc3CC)CC2)n1 [Example 107, 4-(3-ethyl-5-methyl-4H-124-triazol-4-yl)-N-(6-ethyl-pyridin-2-yl)piperidine-1-sulfonamide]	0
CCOCC1CCN(S(=O)(=O)Nc2cccc(CC)n2)CC1 [Example 109, 4-(ethoxymethyl)-N-(6-ethylpyridin-2-yl)pipendine-1-sulfonamide]	58.7
CCc1cccc(NS(=O)(=O)N2CCC(Oc3ccc(C#N)cc3OC)CC2)n1 [Example 110, 4-(4-cyano-2-methoxy-phenoxy)-N-(6-ethylpyridin-2-yl)piperidine-1-sulfonamide]	8
CCCOC1CCN(S(=O)(=O)Nc2cccc(CC)n2)CC1 [Example 111, N-(6-ethylpyridin-2-yl)-4-propoxypiperidine-1-sulfonamide]	50.8
Cc1cccc(NS(=O)(=O)N2CCN(c3ccccn3)CC2)n1 [Example 126, N-(6-methylpyridin-2-yl)-4-pyridin-2-ylpiperazine-1-sulfonamide]	57.8
Cc1cccc(NS(=O)(=O)N2CCCCCC2)n1 [Example 130, N-(6-methylpyridin-2-yl)azepane-1-sulfonamide]	56.7
Cc1cccc(NS(=O)(=O)N2CCN(c3cc(C#N)ccn3)CC2)n1 [Example 135, 4-(4-cyanopyridin-2-yl)-N-(6-methylpyridin-2-yl)piperazine-1-sulfonamide]	29.9
CCc1cccc(NS(=O)(=O)N2CCN(Cc3c(F)cccc3F)CC(COC)C2)n1 (centres unmarked) [Example 141, 4-(26-difluorobenzyl)-N-(6-ethylpyridin-2-yl)-6-(methoxymethyl)-14-diazepane-1-sulfonamide]	13.8
CCc1cccc(NS(=O)(=O)N2CCN(C)CC(COCc3c(F)cccc3F)C2)n1 (centres unmarked) [Example 142, 6-{[(26-difluoro-benzyl)oxy]methyl)-N-(6-ethylpyridin-2-yl)-4-methyl-14-diazepane-1-sulfonamide]	5.9
